According to patent US20060276498A1 (Wyeth, priority 2005, published 2006):

Biological target: T1, human Cot/Tpl2 kinase (Homo sapiens, UniProt P41279)
T1 construct: human Cot/Tpl2 kinase construct encoding residues 30-398; 6His (N); made in house; host or cells: Sf9 insect cells (baculovirus system, BD Biosciences)
Experiment: Tpl2/Cot kinase assay, GST-MEK1 phosphorylation detected by ELISA (DELFIA Eu)
Assay type: biochemical
Procedure: Sf9 cells expressing the kinase were lysed in 50 mM NaPhosphate pH=8; 300 mM NaCl; 5 mM imidazole; 0.1 mM EGTA; 25 mM beta-glycerophosphate; 1% TX-100, 1% glycerol; 6 mM beta-mercaptoethanol and protease inhibitors. The lysate was clarified by centrifugation and was loaded onto a Ni-Sepharose column. The column was washed with 50 mM NaPhosphate pH=8; 300 mM NaCl; 15 mM imidazole; 1% glycerol; and 6 mM beta-mercaptoethanol. His-Tpl2 was eluted with 50 mM NaPhosphate pH=8; 300 mM NaCl; 250 mM imidazole; 1% glycerol; and 6 mM beta-mercaptoethanol. The eluted protein was further purified by size exclusion chromatography. Fractions corresponding to monomeric Tpl2 were then used in the assay.
Tpl2/Cot activity was directly assayed using GST-MEK1 as a substrate. GST-MEK1 phosphorylation on serine residues 217 and 221 was detected by ELISA. 0.4 nM Tpl2 was incubated with 35 nM GST-MEK1 in a kinase reaction buffer containing 20 mM MOPS pH=7.2; 50 uM ATP; 20 mM MgCl2; 1 mM DTT; 25 mM β-glycerophosphate; 5 mM EGTA; and 1 mM sodium orthovanadate for 1 h at 30° C. The compounds of the inventions solubilized in 100% DMSO were pre-diluted in assay buffer so that the final concentration of DMSO in the reaction was 1%. The kinase reaction was carried out in 100 ul volume on 96 well plates. The kinase reaction was then stopped with the addition of 100 mM EDTA. […] After a 1 hour incubation at room temperature, the detection plate was washed 4 times with TBST (TBS+0.05% Tween 20) and then incubated for another hour at room temperature with anti phospho-MEK1 antibody (Cell Signaling) 1:1000 in 10 mM MOPS 7.5; 150 mM NaCl; 0.05% Tween 20; 0.1% Gelatin; 0.02% NaN3; and 1% BSA. The detection plate was washed again and incubated for 30 min with DELFIA Europium (Eu) labeled goat anti-rabbit IgG (Perkin-Elmer), 1:4000 in the same buffer used for the primary incubation. After a final wash, Eu detection solution was added to each well and the Eu signal was measured in a Wallac Victor^2 Multilabel Counter. IC50 calculations were preformed using the XLfit software package (IDBS, Guildford, UK).

[1] = Table 1, 0.4 nM Tpl2, 35 nM GST-MEK1, 50 uM ATP, 1 h at 30° C.
[2] = Table 2, additional representative compounds

T1 sequence (P41279 30-398): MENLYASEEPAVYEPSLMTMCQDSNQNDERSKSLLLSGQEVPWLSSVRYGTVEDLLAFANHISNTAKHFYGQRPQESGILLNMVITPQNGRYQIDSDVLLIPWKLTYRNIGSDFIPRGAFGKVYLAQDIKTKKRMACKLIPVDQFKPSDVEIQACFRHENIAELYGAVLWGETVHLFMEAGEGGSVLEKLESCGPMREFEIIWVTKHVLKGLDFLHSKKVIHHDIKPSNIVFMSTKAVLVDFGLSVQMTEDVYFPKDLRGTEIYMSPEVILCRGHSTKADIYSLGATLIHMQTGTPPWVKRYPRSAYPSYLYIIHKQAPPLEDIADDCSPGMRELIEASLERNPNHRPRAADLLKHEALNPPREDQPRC

| SMILES | IC50 [1] | IC50 [2] |
| --- | --- | --- |
| N#Cc1cnc2cnc(NCCN3CCOCC3)cc2c1Nc1ccc(-c2ccccc2)cc1 [Example 87, 4-(1,1′-biphenyl-4-ylamino)-6-[(2-morpholin-4-ylethyl)amino]-1,7-naphthyridine-3-carbonitrile] | > 40 µM |  |
| N#Cc1cnc2cnc(NCc3cccnc3)cc2c1Nc1ccc(F)c(Cl)c1 [Example 1, 4-(3-chloro-4-fluorophenylamino)-6-(pyridin-3-ylmethylamino)-1,7-naphthyridine-3-carbonitrile] | 0.05 µM |  |
| CS(=O)(=O)c1ccc(CNc2cc3c(NCc4ccc(S(C)(=O)=O)cc4)c(C#N)cnc3cn2)cc1 [Example 132, 4,6-bis{[4-(methylsulfonyl)benzyl]amino}-1,7-naphthyridine-3-carbonitrile] |  | 16.9 µM |
| N#Cc1cnc2cnc(NCCN3CCOCC3)cc2c1Nc1cccc(Oc2ccccc2)c1 [Example 2, 6-(2-morpholinoethylamino)-4-(3-phenoxyphenylamino)-1,7-naphthyridine-3-carbonitrile] | 11.6 µM |  |
| CCN1CCC[C@H]1CNc1cc2c(NC3CCCC3)c(C#N)cnc2cn1 [Example 129, 4-(cyclopentylamino)-6-({[(2S)-1-ethylpyrrolidin-2-yl]methyl}amino)-1,7-naphthyridine-3-carbonitrile] |  | 2.8 µM |
| N#Cc1cnc2cnc(NCc3cccnc3)cc2c1NC1CCCCC1 [Example 114, 4-(cyclohexylamino)-6-[(pyridin-3-ylmethyl)amino]-1,7-naphthyridine-3-carbonitrile] |  | 0.47 µM |
| N#Cc1cnc2cnc(NCCN3CCOCC3)cc2c1Nc1ccc(Br)cc1 [Example 5, 4-(4-bromophenylamino)-6-(2-morpholinoethylamino)-1,7-naphthyridine-3-carbonitrile] | > 40 µM |  |
| N#Cc1cnc2cnc(NCc3cccnc3)cc2c1Nc1ccc(Sc2ccccc2)cc1 [Example 19, 4-(4-(phenylthio)phenylamino)-6-(pyridin-3-ylmethylamino)-1,7-naphthyridine-3-carbonitrile] | 0.009 µM |  |
| N#Cc1cnc2cnc(N)cc2c1Nc1ccc(F)c(Cl)c1 [Example 35, 6-amino-4-[(3-chloro-4-fluorophenyl)amino]-1,7-naphthyridine-3-carbonitrile] | 5 µM |  |
| CN(c1c(C#N)cnc2cnc(F)cc12)C1CCCCCC1 [Example 136, 4-[cycloheptyl(methyl)amino]-6-fluoro-1,7-naphthyridine-3-carbonitrile] |  | 0.36 µM |
| N#Cc1cnc2cnc(NC3CCCCCC3)cc2c1Nc1ccc(F)c(Cl)c1 [Example 144, 4-[(3-chloro-4-fluorophenyl)amino]-6-(cycloheptylamino)-1,7-naphthyridine-3-carbonitrile] |  | 5.2 µM |
| N#Cc1cnc2cnc(F)cc2c1Nc1cccc(I)c1 [Example 104, 6-fluoro-4-[(3-iodophenyl)amino]-1,7-naphthyridine-3-carbonitrile] |  | > 40 µM |
| N#Cc1cnc2cnc(NCc3cccnc3)cc2c1NC1CC1 [Example 111, 4-(cyclopropylamino)-6-[(pyridin-3-ylmethyl)amino]-1,7-naphthyridine-3-carbonitrile] |  | 2.8 µM |
| C[C@@H](Nc1cc2c(Nc3ccc(F)c(Cl)c3)c(C#N)cnc2cn1)[C@@H](O)c1ccccc1 [Example 53, 4-[(3-chloro-4-fluorophenyl)amino]-6-{[(1R, 2S)-2-hydroxy-1-methyl-2-phenylethyl]amino}-1,7-naphthyridine-3-carbonitrile] | 7 µM |  |
| N#Cc1cnc2cnc(NCc3cccnc3)cc2c1Nc1ccc(Cc2ccccc2)cc1 [Example 14, 4-(4-benzylphenylamino)-6-(pyridin-3-ylmethylamino)-1,7-naphthryidine-3-carbonitrile] | 0.017 µM |  |
| COc1ccc(Nc2c(C#N)cnc3cnc(NCCN4CCOCC4)cc23)cc1 [Example 31, 4-(4-methoxyphenylamino)-6-(2-morpholinoethylamino)-1,7-naphthyridine-3-carbonitrile] | > 40 µM |  |
| CC(C)(C)Nc1c(C#N)cnc2cnc(NCc3ccc(S(C)(=O)=O)cc3)cc12 [Example 130, 4-(tert-butylamino)-6-{[4-(methylsulfonyl)benzyl]amino}-1,7-naphthyridine-3-carbonitrile] |  | 4.6 µM |
| N#Cc1cnc2cnc(NCCN3CCOCC3)cc2c1Nc1ccc([N+](=O)[O-])cc1 [Example 88, 6-(2-morpholinoethylamino)-4-(4-nitrophenylamino)-1,7-naphthyridine-3-carbonitrile] | 7 µM |  |
| CCC(C)(C)Nc1c(C#N)cnc2cnc(F)cc12 [Example 141, 4-[(1,1-dimethylpropyl)amino]-6-fluoro-1,7-naphthyridine-3-carbonitrile] |  | > 40 µM |
| N#Cc1cnc2cnc(NCCN3CCOCC3)cc2c1Nc1cccc(C(=O)O)c1 [Example 84, 3-(3-cyano-6-(2-morpholinoethylamino)-1,7-naphthyridin-4-ylamino)benzoic acid] | > 10 µM |  |
| N#Cc1cnc2cnc(NCc3cccnc3)cc2c1Nc1cccc(Oc2ccccc2)c1 [Example 15, 4-(3-phenoxyphenylamino)-6-(pyridin-3-ylmethylamino)-1,7-naphthyridine-3-carbonitrile] | > 40 µM |  |
| C[C@@H](O)CNc1cc2c(Nc3ccc(F)c(Cl)c3)c(C#N)cnc2cn1 [Example 55, 4-[(3-chloro-4-fluorophenyl)amino]-6-{[(2R)-2-hydroxypropyl]amino}-1,7-naphthyridine-3-carbonitrile] | 1.5 µM |  |
| CCC(C)(C)Nc1cc2c(Nc3ccc(F)c(Cl)c3)c(C#N)cnc2cn1 [Example 91, 4-(3-chloro-4-fluorophenylamino)-6-(tert-pentylamino)-1,7-naphthyridine-3-carbonitrile] | > 40 µM |  |
| Cc1ccc(Nc2c(C#N)cnc3cnc(NCCN4CCOCC4)cc23)cc1Br [Example 64, 4-[(3-bromo-4-methylphenyl)amino]-6-[(2-morpholin-4-ylethyl)amino]-1,7-naphthyridine-3-carbonitrile] | > 40 µM |  |
| CN(c1ccc(F)c(Cl)c1)c1c(C#N)cnc2cnc(NCCN3CCOCC3)cc12 [Example 89, 4-((3-chloro-4-fluorophenyl)(methyl)amino)-6-(2-morpholinoethylamino)-1,7-naphthyridine-3-carbonitrile] | > 40 µM |  |
| N#Cc1cnc2cnc(F)cc2c1Nc1ccc2[nH]ccc2c1 [Example 102, 6-fluoro-4-(1H-indol-5-ylamino)-1,7-naphthyridine-3-carbonitrile] |  | > 40 µM |
| C[C@@H](Nc1cc2c(Nc3ccc(F)c(Cl)c3)c(C#N)cnc2cn1)c1ccccc1 [Example 59, 4-[(3-chloro-4-fluorophenyl)amino]-6-{[(1R)-1-phenylethyl]amino}-1,7-naphthyridine-3-carbonitrile] | 0.012 µM |  |
| N#Cc1cnc2cnc(NCc3cccnc3)cc2c1Nc1ccc(Br)cc1 [Example 17, 4-(4-bromophenylamino)-6-(pyridin-3-ylmethylamino)-1,7-naphthyridine-3-carbonitrile] | > 10 µM |  |
| N#Cc1cnc2cnc(NCCN3CCOCC3)cc2c1Nc1cccc(I)c1 [Example 78, 4-(3-iodophenylamino)-6-(2-morpholinoethylamino)-1,7-naphthyridine-3-carbonitrile] | 7.1 µM |  |
| N#Cc1cnc2cnc(NCc3ccccn3)cc2c1Nc1ccc(F)c(Cl)c1 [Example 123, 4-(3-chloro-4-fluorophenylamino)-6-(pyridin-2-ylmethylamino)-1,7-naphthyridine-3-carbonitrile] |  | 0.13 µM |
